Source: ChEMBL document CHEMBL3525978, “Preferred binding orientations of phenacetin in CYP1A1 and CYP1A2 are associated with isoform-selective metabolism” (Drug Metab Dispos, 2012)

Tests used:
Format in all cases: ADME
[1] = target: T1, Cytochrome P450 1A1 (Homo sapiens, UniProt P04798); assay: Ratio of Kcat to Km for CYP1A1 (unknown origin) expressed in Escherichia coli DH5alpha preincubated for 5 mins before NADPH addition measured after 30 mins by HPLC analysis; settings: 0.5 h
T1 sequence (P04798 whole entry): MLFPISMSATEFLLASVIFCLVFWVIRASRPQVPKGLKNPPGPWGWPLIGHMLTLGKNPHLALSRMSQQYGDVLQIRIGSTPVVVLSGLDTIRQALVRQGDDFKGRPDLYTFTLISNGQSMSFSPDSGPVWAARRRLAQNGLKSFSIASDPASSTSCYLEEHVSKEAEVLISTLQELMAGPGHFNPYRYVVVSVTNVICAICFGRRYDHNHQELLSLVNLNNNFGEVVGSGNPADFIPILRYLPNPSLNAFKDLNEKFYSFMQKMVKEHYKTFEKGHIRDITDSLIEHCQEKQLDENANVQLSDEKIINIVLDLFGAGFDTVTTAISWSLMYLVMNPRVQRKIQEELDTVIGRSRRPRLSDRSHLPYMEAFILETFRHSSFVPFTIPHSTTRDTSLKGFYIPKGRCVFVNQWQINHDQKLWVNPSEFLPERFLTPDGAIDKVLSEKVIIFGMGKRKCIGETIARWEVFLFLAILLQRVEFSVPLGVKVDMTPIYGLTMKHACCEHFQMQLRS

[2] = target: T2, Cytochrome P450 1A2 (Homo sapiens, UniProt P05177); assay: Ratio of Kcat to Km for CYP1A2 (unknown origin) expressed in Escherichia coli DH5alpha preincubated for 5 mins before NADPH addition measured after 30 mins by HPLC analysis; settings: 0.5 h
T2 sequence (P05177 whole entry): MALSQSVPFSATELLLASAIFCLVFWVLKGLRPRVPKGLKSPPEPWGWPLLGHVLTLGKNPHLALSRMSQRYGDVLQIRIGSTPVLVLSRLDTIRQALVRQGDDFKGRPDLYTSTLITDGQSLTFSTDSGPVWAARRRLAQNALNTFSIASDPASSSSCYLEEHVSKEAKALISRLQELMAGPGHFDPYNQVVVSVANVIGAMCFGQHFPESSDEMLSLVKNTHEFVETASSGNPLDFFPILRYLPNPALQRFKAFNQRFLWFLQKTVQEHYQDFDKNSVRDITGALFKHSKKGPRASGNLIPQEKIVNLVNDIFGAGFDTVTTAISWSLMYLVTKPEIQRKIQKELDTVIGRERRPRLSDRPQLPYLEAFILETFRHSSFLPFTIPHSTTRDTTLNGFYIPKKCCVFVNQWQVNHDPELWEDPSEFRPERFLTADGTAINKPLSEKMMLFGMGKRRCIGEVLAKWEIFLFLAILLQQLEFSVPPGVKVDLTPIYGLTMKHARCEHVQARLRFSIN

[3] = Ratio of Kcat for CYP1A2 (unknown origin) expressed in Escherichia coli DH5alpha to Kcat for CYP1A1 (unknown origin) expressed in Escherichia coli DH5alpha; settings: human
[4] = system: CYP1A1, CYP1A2; assay: Ratio of Km for CYP1A1 (unknown origin) expressed in Escherichia coli DH5alpha to Km for CYP1A2 (unknown origin) expressed in Escherichia coli DH5alpha; settings: human

Row | Kcat/Km [1] | Kcat/Km [2] | Ratio [3] | Compound | selectivity ratio [4]
1 | 0.001 | 0.018 | – | CC(=O)Nc1ccc(O)cc1 [ACETAMINOPHEN] | –
2 | – | – | 2.5 | CCOc1ccc(NC(C)=O)cc1 [PHENACETIN] | 8
